Measured values taken from US9884874B2, “Bromodomain-inhibiting compounds and pharmaceutical composition comprising same for preventing or treating a cancer” (KAINOS MEDICINE, INC., priority 2014, dated 2018).

Experiments:
SK-LU-1 (adenocarcinoma) = test: Anti-proliferative activity, SK-LU-1; format: cell-based; details: Homo sapiens, SKLU-1 (Adenocarcinoma), read-out: Cell proliferation, IC50
OPM-2 (multiple myeloma) = test: Anti-proliferative activity, OPM-2; format: cell-based; details: Homo sapiens, read-out: Cell proliferation, IC50
[1] = test system: MV4-11 (human leukemia cell line); test: Anti-proliferative activity test (CellTiter-Glo), MV4-11; format: cell-based; details: second value of LnCAP/MV4-11 cell, read-out: Cell proliferation IC50 (MV4-11)
Experimental: (§1) IC50 (uM) of the compounds obtained in Examples 1 to 18 against hematological cancer cells and solid tumors was measured for identifying anti-proliferative activities.
(§2) A human prostatic adenocarcinoma cell line, LnCAP (ATCC®, CRL-1740) and human leukemia cell line MV4-11 (ATCC®, CRL-9591) were used to test the degrees of the compounds 1 to 18 in inhibiting the cancer cell growth. The testing cell concentration was adjusted to 6.7×10^3 cells/ml with a culture medium supplemented with 10% FBS, in the temperature of 37° C., 5% CO2 and 95% humidity. Culture media and FBS were purchased from GIBCO. 90 μL of cell suspensions thus obtained was added to two 96-well plates with the final cell density of 600 cells/well, followed by addition of 10 μL of culture medium to each well of plate. The plates were incubated overnight in a humidified incubator at 37° C. with 5% CO2.
(§3) Compounds 1 to 18 were each dissolved with dimethylsulfoxide (DMSO) or phosphate buffer solution (PBS) as a stock solution, and 200× solutions of test compound (2 mM) using DMSO were prepared. Then, the DMSO solution thus obtained was diluted 20-fold with culture medium or PBS to obtain 10× working solution. 10 μL of 10× working solution (drug solution) was dispensed to each well (triplicate for each concentration). The final concentration of DMSO in culture medium was 0.5% [v/v].
(§4) Cell viability was determined using CellTiter-Glo® (CTG) assay. 100 μL of CellTiter-Glo® was added to the equal volume of the cultured cells to read luminescence in EnVision Multi Label Reader.

[2] = test system: A375 (malignant melanoma); test: Anti-proliferative activity, A375; format: cell-based; details: Homo sapiens, A-375, read-out: Cell proliferation, IC50
[3] = Animal pharmacokinetics in ICR mice; format: in vivo; details: ICR, mouse, 10 mg/kg
Experimental: Pharmacokinetics of the compounds of 1, 2, 7, 8 11 and 15 were evaluated in ICR mice (6˜8 weeks, 20˜25 g) following intravenous (IV) administration at 10 mg/kg and per oral (PO) administration at 10 mg/kg dose level, respectively. Especially, the additional dose level of Compound 1 was 30 mg/kg.
For serum compound analysis, blood samples were collected by cardiac puncture over 24 hr time course. 20 μL of spiked plasma was added into a 96-well plate, adding ten volumes of internal standard (IS) in acetonitrile (ACN) to the obtained precipitated protein mixed thoroughly, centrifuged at 4,000 rpm for 10 min. 150 μL of supernatant thus obtained was transferred to another pre-labeled 96-well plate, mixed with 150 μL of water. 5 μL or 10 μL of the mixture was injected into the LC-MS system under the following conditions:
Column: API-4000+Waters UPLC (TCLM08);
Lower limit of quantification (LLOQ) was at 1 ng/mL. Pharmacokinetic parameters of half-life (T1/2), clearance (CL), maximum plasma concentration (Cmax), mean residence time (MRT) and bioavailability (F %), plasma exposure (AUC) of the compound were calculated using Phoenix WinNonlin 6.3 (non-compartmental model).

[4] = Human liver microsomal stability/clearance; format: in vitro ADME; details: human liver microsomes; first value of Human/Mouse cell; read-out: Liver microsomal clearance (Human)
Experimental: (§5) Human and mouse liver microsomal clearance assays were carried out in CROWN Biosciences (Taicang, China). The human liver microsomes (Cat No. X008067, Lot No. KQB) and mouse liver microsomes (Cat No. M1000, Lot No. 1210302) were purchased from Celsis and Xenotech, respectively.
(§6) 5 μL of test compound stock solution was diluted with 495 μL of 1:1 Methanol/Water (final concentration: 100 μM, 50% MeOH) and combined with 534 μL of the respective liver microsome solution (final concentration: 1.111 μM, 0.555% MeOH). The final concentration of the liver microsome solution was 0.7 mg protein/mL.
(§7) Incubations of the liver microsome solutions were performed in a 96 well plate at 37° C. 90 μL of the liver microsome solutions were added to Blank, and 90 μL of working solution of the test compound was added to all plates except the Blank.
(§8) All plates thus obtained were warmed in water bath at 37° C. for 10 min, and 10 μL of NADPH co-factor solution comprising 42 mg of β-nicotinamide adenine dinucleotide phosphate (Sigma Cat. No. N0505 Lot 020M7009V), 84 mg of isocitric acid (Sigma Cat. No. 11252 Lot 119K1099) and 0.478 mL of isocitric dehydrogenase (Sigma Cat. No. 12002 Lot 086K7055, 15 units/mg protein, warmed in water bath at 37° C. for 5 min was added to the plates. The resulting plates were incubated at 37° C. in the following order: T60 (The test compounds were incubated with the liver microsomal solution and NADPH for 60 min at 37° C.), T30 (such as for 30 min.), and T10 (such as for 10 min.). 300 μL of a cold (4° C.) stop solution (acetonitrile (ACN) including 500 nM of tolbutamide as internal standard) and 10 μL of NADPH co-factor solution to starting plate (T0: 100% of the parent compound without any reaction) were added to the plates. The reaction was stopped by adding 300 μL of the cold (4° C.) stop solution to the other plates in the following order: T10 first, then T30 and T60.
(§9) The samples were centrifuged at 4,000 rpm for 20 min and transferred to Bioanalytical Services for liquid chromatography-mass spectrometry (LC-MS)/MS (Waters UPLC/API 4000, 10 μL injection) analysis.

human BRD4 bromodomain 1 = human BRD4 bromodomain 1 (Homo sapiens (Human), UniProt O60885); test: Bromodomain binding assay (BRD4 Alpha-screen); details: acetylated histone H4 peptide
Experimental: Bromodomain binding assays were carried out in Reaction Biology (PA, USA) to test the degrees of the inventive compounds in inhibiting the human BRD4 bromodomain 1 by Alpha-screen assay method.
Recombinant human BRD4 bromodomain 1 expressed in E. coli with N-terminal His-tag was used as the enzyme target.
A synthetic peptide ([…]-GSGSK-biotin) containing 1 to 21th amino acids of histone H4 acetylated at lysine 5, 8, 12 and 16 and conjugated to biotin was purchased from Millipore.
BRD4-1 (44 to 170th amino acids; Genbank Accession # NM_058243) was expressed in E. coli with N-terminal His-tag (see, Ni-NTA spin Kit Handbook (Qiagen), second edition, January, 2008). Nickel-Chelate ALPHA acceptor beads (Perkin Elmer) were used to specifically bind BRD4-1, and ALPHA streptavidin donor beads (Perkin Elmer) were used because they specifically recognized the biotinylated H4 peptide.
BRD binding assays were performed in a mixture comprising 50 mM Hepes (pH7.5), 100 mM NaCl, 0.05% CHAPS, 0.1% BSA, and 1% DMSO. After an assay reaction time of 60 min at 25° C., binding was measured with streptavidin donor beads and nickel-chelate acceptor beads. ALPHA signal was detected on Enspire (Ex/Em=680/520-620 nm). IC50 values were calculated from the fit of the dose-response curves. All IC50 values represent geometric mean values of a minimum of four determinations. These assays generally produced results within 3-fold of the reported mean.

[5] = Mouse liver microsomal stability/clearance; format: in vitro ADME; details: mouse liver microsomes; second value of Human/Mouse cell; read-out: Liver microsomal clearance (Mouse)
Experimental: as §5, §6, §7, §8, §9

[6] = test system: LnCAP (human prostatic adenocarcinoma cell line); test: Anti-proliferative activity test (CellTiter-Glo), LnCAP; format: cell-based; details: first value of LnCAP/MV4-11 cell, read-out: Cell proliferation IC50 (LnCAP)
Experimental: as §1, §2, §3, §4

CCS(=O)(=O)OC[C@@H]1N=C(c2ccc(Cl)cc2)c2cc(OC)ccc2-n2c(C)nnc21 [Compound 2, (R)-(6-(4-chlorophenyl)-8-methoxy-1-methyl-4H-benzo[f][1,2,4]triazolo[4,3-a][1,4]diazepin-4-yl)methyl ethanesulfonate]
IC50 (SK-LU-1 (adenocarcinoma)): 1450 nM
IC50 (OPM-2 (multiple myeloma)): 650 nM
IC50 [1]: 410 nM
IC50 [2]: 9300 nM
AUC ([3]; in vivo, IV): 73 µM·h
MRT ([3]; in vivo, IV): 3.9 h
clearance ([3]; in vivo, IV): 4.9 mL/min/kg
AUC ([3]; in vivo, PO): 66 µM·h
MRT ([3]; in vivo, PO): 4.1 h
bioavailability ([3]; in vivo, PO): 89.8%
microsomal CLint at 1 µM [4]: 1.9 µL/min/mg
IC50 (human BRD4 bromodomain 1): 220 nM
microsomal CLint at 1 µM [5]: 8.1 µL/min/mg
IC50 [6]: 600 nM

COc1ccc2c(c1)C(c1ccc(C#N)cc1)=N[C@@H](COS(C)(=O)=O)c1nnc(C)n1-2 [Compound 7, (R)-(6-(4-cyanophenyl)-8-methoxy-1-methyl-4H-benzo[f][1,2,4]triazolo[4,3-a][1,4]diazepin-4-yl)methyl methanesulfonate]
IC50 [1]: 3340 nM
AUC ([3]; in vivo, IV): 17.3 µM·h
clearance ([3]; in vivo, IV): 22.5 mL/min/kg
AUC ([3]; in vivo, PO): 8.19 µM·h
bioavailability ([3]; in vivo, PO): 47.4%
microsomal CLint at 1 µM [4]: 2.1 µL/min/mg
IC50 (human BRD4 bromodomain 1): 230 nM
microsomal CLint at 1 µM [5]: 3.4 µL/min/mg
IC50 [6]: 830 nM

COc1ccc2c(c1)C(c1ccc(Cl)cc1)=N[C@@H](COS(N)(=O)=O)c1nnc(C)n1-2 [Compound 8, (R)-(6-(4-chlorophenyl)-8-methoxy-1-methyl-4H-benzo[f][1,2,4]triazolo[4,3-a][1,4]diazepin-4-yl)methyl sulfamate]
IC50 [1]: 1490 nM
AUC ([3]; in vivo, IV): 41 µM·h
clearance ([3]; in vivo, IV): 9 mL/min/kg
AUC ([3]; in vivo, PO): 31.5 µM·h
bioavailability ([3]; in vivo, PO): 62.3%
microsomal CLint at 1 µM [4]: 5 µL/min/mg
IC50 (human BRD4 bromodomain 1): 220 nM
microsomal CLint at 1 µM [5]: 5 µL/min/mg
IC50 [6]: 960 nM

Cc1nnc2n1-c1ccc(-c3cnn(C)c3)cc1C(c1ccc(Cl)cc1)=N[C@H]2COS(C)(=O)=O [Compound 11, (R)-(6-(4-chlorophenyl)-1-methyl-8-(1-methyl-1H-pyrazol-4-yl)-4H-benzo[f][1,2,4]triazolo[4,3-a][1,4]diazepin-4-yl)methyl methanesulfonate]
IC50 [1]: 320 nM
AUC ([3]; in vivo, IV): 20 µM·h
clearance ([3]; in vivo, IV): 16.8 mL/min/kg
AUC ([3]; in vivo, PO): 11.7 µM·h
bioavailability ([3]; in vivo, PO): 58.4%
microsomal CLint at 1 µM [4]: 8.6 µL/min/mg
IC50 (human BRD4 bromodomain 1): 87 nM
microsomal CLint at 1 µM [5]: 8.6 µL/min/mg
IC50 [6]: 190 nM

Cc1sc2c(c1C)C(c1ccc(Cl)cc1)=N[C@@H](COS(C)(=O)=O)c1nnc(C)n1-2 [Compound 15, (R)-(4-(4-chlorophenyl)-2,3,9-trimethyl-6H-thieno[3,2-f][1,2,4]triazolo[4,3-a][1,4]diazepin-6-yl)methyl methanesulfonate]
IC50 [1]: 500 nM
AUC ([3]; plasma, IV): 27 µM·h
MRT ([3]; plasma, IV): 1.9 h
clearance ([3]; plasma, IV): 13.5 mL/min/kg
AUC ([3]; plasma, PO): 31 µM·h
MRT ([3]; plasma, PO): 2.5 h
bioavailability ([3]; plasma, PO): 105%
microsomal CLint at 1 µM [4]: 20 µL/min/mg
IC50 (human BRD4 bromodomain 1): 100 nM
microsomal CLint at 1 µM [5]: 22 µL/min/mg
IC50 [6]: 480 nM
